Reference: PMC5988656, “Phase I studies of AZD1208, a proviral integration Moloney virus kinase inhibitor in solid and haematological cancers” (British Journal of Cancer, 2018)
“And” between values parts separate entries of the source, which are not always exact repeats. Equal entries are not always repeated.

Test: AML dose-escalation study: pharmacokinetics (plasma, urine)
Format: in vivo, human
Details: for Gmean plasma concentration of AZD1208 (± SD): Cycle 1, Day 14
Protocol: The schedules for collection of blood and urine samples for PK analyses in each cohort in both studies are described in Supplementary Table 1. When necessary for clinical response assessment in the AML study, a bone marrow sample for PK analysis was collected at Cycle 1, Day 28.
The concentration of AZD1208 in plasma and urine was determined by Covance, on behalf of Clinical Bioanalysis Alliance at AstraZeneca R&D, using a bioanalytical method. A volume of 0.05 ml of K2EDTA human plasma sample was extracted by liquid–liquid extraction using 0.7 ml of methyl tert-butyl ether. Approximately 100 µl of the supernatant was transferred, evaporated to dryness and reconstituted with 350 µl of 1:1 methanol:water, and a 5 µl injection was made to the high-performance liquid chromatography (HPLC) column. HPLC separations were performed on a Phenomenex LUNA C18 (50 × 2 mm, 5 µm) column using a mobile phase of 0.1% formic acid in water (A) and 0.1% formic acid in acetonitrile (B) at a flow rate of 0.6 ml/min and a column temperature of 40 °C. AZD1208-D5 was used as the internal standard. Detection was performed in a Sciex API4000 mass spectrometer, in a positive electrospray ionisation mode, using multiple reaction monitoring detection (AZD1208: 380.0–>248.1; AZD1208-D5: 385.0–>253.1).

## N[C@@H]1CCCN(c2c(/C=C3\SC(=O)NC3=O)cccc2-c2ccccc2)C1 [AZD1208]
0.5 h post-dose, 120 mg, n=3
  Gmean plasma concentration of AZD1208 (± SD): 1758.9 (970.3, 3188.5) ng ml
0.5 h post-dose, 240 mg, n=6
  Gmean plasma concentration of AZD1208 (± SD): 2365.9 (976.3, 6694.0) ng ml
0.5 h post-dose, 480 mg, n=6
  Gmean plasma concentration of AZD1208 (± SD): 2887.4 (322.6, 25 841.7) ng ml
0.5 h post-dose, 700 mg, n=7
  Gmean plasma concentration of AZD1208 (± SD): 2029.2 (863.1, 4770.5) ng ml
1 h post-dose, 120 mg, n=3
  Gmean plasma concentration of AZD1208 (± SD): 2050.2 (1514.6, 2775.2) ng ml
1 h post-dose, 480 mg, n=6
  Gmean plasma concentration of AZD1208 (± SD): 4956.2 (1164.7, 21 090.8) ng ml
1 h post-dose, 700 mg, n=7
  Gmean plasma concentration of AZD1208 (± SD): 2013.8 (1004.8, 4035.8) ng ml
1 h post-dose, 900 mg, n=9
  Gmean plasma concentration of AZD1208 (± SD): 1952.5 (1166.1, 3269.1) ng ml
1.5 h post-dose, 120 mg, n=3
  Gmean plasma concentration of AZD1208 (± SD): 2375.1 (1849.1, 3050.7) ng ml
1.5 h post-dose, 240 mg, n=6
  Gmean plasma concentration of AZD1208 (± SD): 5142.8 (4058.6, 6516.6) ng ml
1.5 h post-dose, 480 mg, n=6
  Gmean plasma concentration of AZD1208 (± SD): 5384.2 (2123.1, 13 654.8) ng ml
1.5 h post-dose, 700 mg, n=7
  Gmean plasma concentration of AZD1208 (± SD): 3963.7 (2236.9, 7023.5) ng ml
1.5 h post-dose, 900 mg, n=9
  Gmean plasma concentration of AZD1208 (± SD): 2747.1 (1719.7, 4388.3) ng ml
2 h post-dose, 120 mg, n=3
  Gmean plasma concentration of AZD1208 (± SD): 2216.3 (1388.5, 3537.7) ng ml
2 h post-dose, 240 mg, n=6
  Gmean plasma concentration of AZD1208 (± SD): 6153.8 (5277.1, 7175.8) ng ml
2 h post-dose, 480 mg, n=6
  Gmean plasma concentration of AZD1208 (± SD): 5818.8 (2320.7, 14 589.5) ng ml
2 h post-dose, 700 mg, n=7
  Gmean plasma concentration of AZD1208 (± SD): 4388.1 (2945.6, 6536.9) ng ml
2 h post-dose, 900 mg, n=9
  Gmean plasma concentration of AZD1208 (± SD): 3107.5 (1803.0, 5356.1) ng ml
3 h post-dose, 120 mg, n=3
  Gmean plasma concentration of AZD1208 (± SD): 2052.0 (1181.0, 3565.2) ng ml
3 h post-dose, 240 mg, n=6
  Gmean plasma concentration of AZD1208 (± SD): 3687.8 (1657.8, 8203.5) ng ml
3 h post-dose, 480 mg, n=6
  Gmean plasma concentration of AZD1208 (± SD): 5515.9 (1885.1, 16 139.7) ng ml
3 h post-dose, 700 mg, n=7
  Gmean plasma concentration of AZD1208 (± SD): 5521.1 (2560.5, 11 905.2) ng ml
3 h post-dose, 900 mg, n=9
  Gmean plasma concentration of AZD1208 (± SD): 3179.0 (1505.2, 6714.4) ng ml
6 h post-dose, 120 mg, n=3
  Gmean plasma concentration of AZD1208 (± SD): 1761.5 (1019.2, 3044.5) ng ml
6 h post-dose, 240 mg, n=6
  Gmean plasma concentration of AZD1208 (± SD): 3196.3 (1504.2, 6791.5) ng ml
6 h post-dose, 480 mg, n=6
  Gmean plasma concentration of AZD1208 (± SD): 5420.2 (1806.5, 16 262.9) ng ml
6 h post-dose, 700 mg, n=7
  Gmean plasma concentration of AZD1208 (± SD): 4452.1 (2126.6, 9320.8) ng ml
6 h post-dose, 900 mg, n=9
  Gmean plasma concentration of AZD1208 (± SD): 2320.5 (896.7, 6004.8) ng ml
8 h post-dose, 120 mg, n=3
  Gmean plasma concentration of AZD1208 (± SD): 1700.4 (974.4, 2967.5) ng ml
8 h post-dose, 240 mg, n=6
  Gmean plasma concentration of AZD1208 (± SD): 2735.5 (1203.4, 6218.4) ng ml
8 h post-dose, 480 mg, n=6
  Gmean plasma concentration of AZD1208 (± SD): 5248.1 (1804.2, 15 265.9) ng ml
8 h post-dose, 700 mg, n=7
  Gmean plasma concentration of AZD1208 (± SD): 4064.8 (2043.6, 8085.1) ng ml
8 h post-dose, 900 mg, n=9
  Gmean plasma concentration of AZD1208 (± SD): 2608.4 (2223.6, 3059.7) ng ml
24 h post-dose, 120 mg, n=3
  Gmean plasma concentration of AZD1208 (± SD): 1248.3 (485.6, 3208.8) ng ml
24 h post-dose, 240 mg, n=6
  Gmean plasma concentration of AZD1208 (± SD): 1818.9 (580.7, 5697.5) ng ml
24 h post-dose, 480 mg, n=6
  Gmean plasma concentration of AZD1208 (± SD): 3154.5 (406.4, 24 485.6) ng ml
24 h post-dose, 700 mg, n=7
  Gmean plasma concentration of AZD1208 (± SD): 2302.0 (643.6, 8233.0) ng ml
24 h post-dose, 900 mg, n=9
  Gmean plasma concentration of AZD1208 (± SD): 593.0 (174.0, 2021.0) ng ml
pre-dose, 120 mg, n=3
  Gmean plasma concentration of AZD1208 (± SD): 1163.1 (335.5, 4032.0) ng ml
pre-dose, 240 mg, n=6
  Gmean plasma concentration of AZD1208 (± SD): 2106.9 (693.2, 6845.2) ng ml
pre-dose, 480 mg, n=6
  Gmean plasma concentration of AZD1208 (± SD): 2302.9 (541.6, 9792.3) ng ml
pre-dose, 700 mg, n=7
  Gmean plasma concentration of AZD1208 (± SD): 2513.6 (1057.2, 5976.4) ng ml
pre-dose, 900 mg, n=9
  Gmean plasma concentration of AZD1208 (± SD): 463.1 (444.2, 482.7) ng ml
Across the doses, 7/16 patients
  Patients with marked accumulation (>3-fold): 44%
After a single dose
  Median time to maximum plasma concentration (Tmax): ~ 3 h
After multiple doses
  Differences in AZD1208 concentrations between individuals within the same cohort: up to 10 fold
Following multiple doses
  Dose proportionality of Cmax and AUC0–24: less than dose proportional
Individual patients at 480 mg
  Accumulation ratio: 3.6 and 0.36
Within 24 h, all cohorts
  Administered dose eliminated unchanged in urine: < 1%
